In patent US11655492B2, “Activated formylglycine-generating enzymes and methods of producing and using the same” (R.P. Scherer Technologies, LLC, priority 2015, dated 2023):
Several values for one entry are separate records, joined by “and”; a condition that tells them apart may be missing. Identical values can stand only once. Entries after “also recorded” stand apart in the source; their conditions may differ. Like-named read-outs stand apart in the source and are kept apart here.

How the values were obtained:
Sc-FGE = Sc-FGE (Streptomyces coelicolor, UniProt Q9F3C7); type: biochemical, S. coelicolor
Hs-cFGE = target: T1, Hs-cFGE (Homo sapiens, UniProt Q8NBK3)
T1 sequence (Q8NBK3 with tags, fused parts or gaps isoform Q8NBK3-4): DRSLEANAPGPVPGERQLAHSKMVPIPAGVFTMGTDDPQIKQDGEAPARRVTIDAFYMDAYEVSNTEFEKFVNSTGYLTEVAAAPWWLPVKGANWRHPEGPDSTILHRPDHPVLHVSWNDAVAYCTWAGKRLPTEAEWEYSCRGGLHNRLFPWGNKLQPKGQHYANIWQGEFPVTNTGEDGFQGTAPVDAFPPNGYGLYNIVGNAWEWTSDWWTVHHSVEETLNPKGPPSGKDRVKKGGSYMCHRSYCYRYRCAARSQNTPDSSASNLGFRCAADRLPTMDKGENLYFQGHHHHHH

FGE = target: T2, FGE (Homo sapiens, UniProt Q8NBK3); experiment: FGE reaction mixtures with reductants or additives (product formation); type: biochemical; details: additive in the in vitro FGE reaction mixture
T2 construct: made in house
T2 sequence (Q8NBK3 with tags, fused parts or gaps isoform Q8NBK3-4): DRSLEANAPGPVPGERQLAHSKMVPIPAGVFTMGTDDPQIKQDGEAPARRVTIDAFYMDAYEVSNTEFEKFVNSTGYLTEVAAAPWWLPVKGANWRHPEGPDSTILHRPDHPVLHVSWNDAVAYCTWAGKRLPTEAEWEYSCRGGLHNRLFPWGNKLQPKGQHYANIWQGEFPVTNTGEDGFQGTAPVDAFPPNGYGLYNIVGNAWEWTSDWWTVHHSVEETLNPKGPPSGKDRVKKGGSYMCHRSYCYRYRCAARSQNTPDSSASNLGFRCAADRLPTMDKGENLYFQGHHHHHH
Procedure: The specific activity of FGE was measured using a discontinuous enzymatic activity assay. […] The rate of reaction was determined by integrating the peak areas at 215 nm of the substrate cysteine (Csub) and product (fGly) peptides on reversed-phase HPLC. […] Each aqueous reaction solution (120 μL) contained Csub (100 μM), FGE (0.1-1 μM), DTT (1 mM), and buffer (25 mM TEAM, pH 9). A single time course included 5 data points collected at evenly spaced intervals. The reaction was initiated upon addition of FGE stock solution and vortexing for 3 s. The reaction vial was vortexed at 1,500 RPM and 25° C. in a thermomixer R (Eppendorf). Time points were hand quenched by adding 20 μL of reaction mixture to 2 μL of 1 M HCl using a micropipettor. After completion of the reaction, each time point was analyzed by RP-HPLC (see below).
The conversion of Cys to fGly used a 2 H^+/2 e^− oxidation of the substrate Cys thiol as well as exchange of sulfur for oxygen. […] However, because O2 is a 4 H^+/4 e^− acceptor, a reducing agent was used to provide a second equivalent of 2 H^+ and 2 e^−, completing the reduction from O2 to 2 mol H2O. […] A mixture of reductant (DTT) and O2 was used for routine activity measurements.

recombinant human FGE = target: T3, recombinant human FGE (Homo sapiens, UniProt Q8NBK3); experiment: In vivo conversion in CHO cells expressing recombinant human FGE and αHER2 mAb, additives in culture medium
T3 sequence (Q8NBK3 34-374): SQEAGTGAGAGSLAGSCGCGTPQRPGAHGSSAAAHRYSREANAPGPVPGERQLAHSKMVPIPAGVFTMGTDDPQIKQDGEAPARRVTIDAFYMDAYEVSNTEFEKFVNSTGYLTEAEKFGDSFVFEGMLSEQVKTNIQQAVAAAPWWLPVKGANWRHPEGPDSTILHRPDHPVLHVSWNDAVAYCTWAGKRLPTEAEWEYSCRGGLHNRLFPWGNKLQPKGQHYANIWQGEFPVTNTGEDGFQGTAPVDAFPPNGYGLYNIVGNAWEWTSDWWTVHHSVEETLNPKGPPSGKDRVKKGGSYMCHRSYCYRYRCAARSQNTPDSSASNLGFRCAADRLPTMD
Procedure: The effect on conversion in the presence of Cu^2+ (copper sulfate) in the cell culture medium of mammalian cells expressing FGEs and proteins that include FGE recognition sites was investigated. CHO cells expressing a recombinant human FGE and recombinant αHER2 mAb (heavy and light chain in same cell) containing the FGE recognition sequence LCTPSR (SEQ ID NO:4) were cultured FortiCHO media with the CellBoost4 feed, Efficient Feed C, and Efficient Feed C, supplemented with glucose and/or galactose.
The experimental conditions were the same as those used in the Cu^2+ experiments above.

CT-1.1 tagged Her2 = experiment: 293 Expi transient co-transfection of FGE form and CT tagged antibody, conversion by mass-spectrometry; type: cell-based; details: Expi 293F, FGE form co-transfected with Her2 CT1.1; copper sulfate 50 μM at Day 0; harvest day 5-6
Procedure: A 293 Expi transient co-transfection system (Life Technologies) was used for producing antibodies having a formylglycine residue at a selected site. The system produced high antibody titers (100-500 mg/L) with variable (10-95%) conversion. […] Expi 293F that were treated with or without 50 μM copper sulfate prior to transfection were transiently co-transfected in three independent experiments with expression plasmids for full-length human FGE with an N-terminal KDEL (SEQ ID NO:7) amino acid sequence (+KDEL) and CT tagged antibody at a ratio of 3:1 antibody:FGE DNA. The culture was harvested at 5-6 days post transfection, titer assessed by ELISA, and the protein was purified and conversion was measured by mass-spectrometry.
Expi 293F cells that were treated with or without 50 μM copper sulfate prior to transfection were transiently co-transfected with expression plasmids for various forms of human FGE (+KDEL, WT, myc-His) and CT tagged antibody at a ratio of 3:1 antibody:FGE DNA. The culture was harvested at 5 days post transfection, titer assessed by ELISA, the protein was purified and conversion was measured by mass-spectrometry.

[1] = test system: 14 amino acid peptide ALCTPSRGSLFTGR (SEQ ID NO:8); experiment: Discontinuous FGE activity assay on peptide substrate (RP-HPLC); type: biochemical
Procedure: [formula] where Et is the total enzyme in solution, and kcat and KM are the standard enzymatic parameters specified by the STRENDA commission. Units of enzyme specific activity are the katal, where 1 kat=1 mol·s^−1. Kinetic parameters were determined from nonlinear regression of [substrate] v. initial velocity using GraphPad prism.
The specific activity of FGE was measuring using a discontinuous enzymatic activity assay. The substrate for FGE was a 14 amino acid peptide containing the consensus sequence (H2N-[…]-COOH (SEQ ID NO:8)). The rate of reaction was determined by integrating the peak area at 215 nm of the starting material (Cys) and product (fGly) containing peptides on reversed-phase HPLC. The identity of product (and side product) peaks were determined by RP-HPLC MS/MS. Each aqueous reaction solution (60 μL) contained substrate peptide (100 μM), FGE (1 μM), DTT (1 mM), and buffer (25 mM triethanolamine, pH 9). A single time course consisted of 5 data points collected every 2 minutes. The reaction was initiated upon addition of FGE stock solution and vortexing for 3 s. Time points were quenched by diluting 10 μL of reaction mixture into 1 μL of 1 M HCl by hand with a micropipettor. After completion of the reaction, each time point was analyzed by RP-HPLC.
Substrate, product, and side products of the FGE substrate peptide […] (SEQ ID NO:8) were separated on RP-HPLC over 7 min with isocratic 18% MeCN in water containing 0.1% TFA. The integrated area of the fGly (2.1 min), Cys (3.3 min), βME-DS (3.6 min), and Cys-DS (6.2 min) forms of the substrate were used to calculate total area and each fraction thereof.
The specific activity of FGE was measured using a discontinuous enzymatic activity assay. The substrate for FGE was a 14 amino acid peptide containing the CXPXR consensus sequence ([…] (SEQ ID NO:8)). The rate of reaction was determined by integrating the peak areas at 215 nm of the substrate cysteine (Csub) and product (fGly) peptides on reversed-phase HPLC. The identities of product (and side product) peaks were determined by RP-HPLC MS/MS (see below). Each aqueous reaction solution (120 μL) contained Csub (100 μM), FGE (0.1-1 μM), DTT (1 mM), and buffer (25 mM TEAM, pH 9). A single time course included 5 data points collected at evenly spaced intervals. The reaction was initiated upon addition of FGE stock solution and vortexing for 3 s. The reaction vial was vortexed at 1,500 RPM and 25° C. in a thermomixer R (Eppendorf). Time points were hand quenched by adding 20 μL of reaction mixture to 2 μL of 1 M HCl using a micropipettor. After completion of the reaction, each time point was analyzed by RP-HPLC (see below).
Substrate, product, and side products of the FGE substrate peptide […] (SEQ ID NO:8) were separated on RP-HPLC over 7 min with isocratic 18% MeCN in water containing 0.1% TFA. The integrated areas of the fGly (2.1 min), Csub (3.3 min), the Csub/βME disulfide (Csub-βME, 3.6 min), and substrate/substrate disulfide (Csub-Csub, 6.1 min) forms of the substrate were used to calculate total area and each fraction thereof.
Individual FGE reactions were initiated by rapidly mixing FGE into a premixed buffered solution of Csub and reducing agent. It was assumed that all buffered solutions contained oxygen at ˜270 μM at 25° C. (based upon Henry's law). Time points were chemically quenched by hand with HCl. […]. The identities of both the Cys- and fGly-containing peptides were confirmed by LC-MS/MS (FIG. 11). These assignments were then correlated with HPLC retention times (FIG. 14, panel a). The integrated peak areas of substrate and product were used to calculate the initial velocity of FGE (FIG. 14, panel b) using the method described by Boeker (Biochem. J., (1984), 223, 15; and Biochem. J., (1985), 226, 29).

[2] = other ion sources: iron sulfate 0.1 mM or 0.5 mM Day 3, MnCl2 50 uM or 10 uM Day 0, ZnCl2 50 uM Day 0

Sequence of Sc-FGE (Q9F3C7 whole entry): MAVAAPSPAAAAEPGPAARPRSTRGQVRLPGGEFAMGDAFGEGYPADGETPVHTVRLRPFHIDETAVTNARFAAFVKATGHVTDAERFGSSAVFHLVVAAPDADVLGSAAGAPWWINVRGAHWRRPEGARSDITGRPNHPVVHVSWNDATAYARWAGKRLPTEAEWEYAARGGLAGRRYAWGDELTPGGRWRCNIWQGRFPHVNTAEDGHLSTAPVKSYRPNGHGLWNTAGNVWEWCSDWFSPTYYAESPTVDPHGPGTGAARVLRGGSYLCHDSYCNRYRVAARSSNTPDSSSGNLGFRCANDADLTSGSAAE

O=C1O[C@H]([C@@H](O)CO)C(=O)C1=O [DHAA, (L)-dehydroascorbic acid]
effect of pretreatment on specific activity (Sc-FGE): did not change

O=C(O)CN(CCN(CC(=O)O)CC(=O)O)CC(=O)O [EDTA, Ethylenediaminetetraacetic acid]
effect of pretreatment of activated enzyme on specific activity (Sc-FGE): do not change; also recorded: did not change
effect of pretreatment of activated enzyme on catalytic activity (Hs-cFGE; copper-treated Hs-cFGE, EDTA 5 molar equiv or KCN): did not change

OO [H2O2, hydrogen peroxide]
effect on product formation when added directly to the reaction (FGE): halted the reaction

[Cl][Mn][Cl] [MnCl2]
effect on conversion of the target polypeptide (recombinant human FGE; [2]): did not effect a detectable or significant increase

O=C(O)CCP(CCC(=O)O)CCC(=O)O [TCEP, tris(carboxyethyl)phosphine]
effect of pretreatment of activated enzyme on specific activity (Sc-FGE): do not change
effect of treatment on specific activity (Hs-cFGE): unchanged specific activity

[Cl-].[Cl-].[Zn+2] [ZnCl2]
effect on conversion of the target polypeptide (recombinant human FGE; [2]): did not effect a detectable or significant increase

O=S(=O)([O-])[O-].[Fe+2] [iron sulfate, iron(II) sulfate]
effect on conversion of the target polypeptide (recombinant human FGE): did not effect a detectable or significant increase

CC(O)C(=O)O (stereo not drawn) [lactate]
effect on conversion efficiency of the FGE (recombinant human FGE; potential stimulators of lactate consumption, lactate or pyruvate 1.5 g/L with feeds): did not increase conversion efficiency

B1: myc His: human FGE C-terminally tagged with myc-His (pRW529) (protein, UniProt Q8NBK3 34-374, looked up)
Formylglycine-generating …: SQEAGTGAGAGSLAGSCGCGTPQRPGAHGSSAAAHRYSREANAPGPVPGERQLAHSKMVPIPAGVFTMGTDDPQIKQDGEAPARRVTIDAFYMDAYEVSNTEFEKFVNSTGYLTEAEKFGDSFVFEGMLSEQVKTNIQQAVAAAPWWLPVKGANWRHPEGPDSTILHRPDHPVLHVSWNDAVAYCTWAGKRLPTEAEWEYSCRGGLHNRLFPWGNKLQPKGQHYANIWQGEFPVTNTGEDGFQGTAPVDAFPPNGYGLYNIVGNAWEWTSDWWTVHHSVEETLNPKGPPSGKDRVKKGGSYMCHRSYCYRYRCAARSQNTPDSSASNLGFRCAADRLPTMD
modifications: C-terminal myc-His tag
Conversion (%) (CT-1.1 tagged Her2): 78% and 94%
specific activity of FGE isolated from Cu^2+ treated cells vs untreated cells [1]: significantly higher activity
